We go through one sequence from patent US20240327506A1, “METHODS AND COMPOSITION FOR THE SELECTIVE ENHANCEMENT OF ADOPTIVE CELL THERAPY” (MaineHealth, priority 2023, published 2024).

Assay [1] has as its system primary murine CD4+ Treg cells. Put plainly: Migration of primary CD4+ Treg cells on denatured collagen type-IV. The format is cell-based. Particulars: Treg from spleens of B16F10 tumor bearing mice, compared to CP. The method, then: Briefly, mice (C57BL/6) were injected subcutaneously with B16F10 cells. B16F10 tumors were allowed to grow for 14-days to allow formation of solid malignant melanomas. Spleens from tumor bearing mice were dissected and primary murine CD4+ Treg cells were isolated and analyzed for the effects of the soluble collagen peptide (P2) or control peptide (CP) on cell migration on denatured collagen type-IV. Data bars represent mean CD4+ Treg cell migration+SE from 3 wells per condition.
Given our surprising finding that CD4+ Treg cell migration is enhanced on denatured collagen-IV as compared to native collagen-IV, we next tested whether CD4+ Treg cell migration through denatured collagen-IV is altered by endogenously generated soluble RGDKGE (SEQ ID NO: 1) collagen peptide P2. For these experiments, mice (C57BL/6) were injected subcutaneously with B16F10 cells. B16F10 tumors were allowed to grow for 14-days to allow formation of solid malignant melanomas. Spleens from tumor bearing mice were dissected and primary murine CD4+ Treg cells were isolated and analyzed for the effects of the soluble collagen peptide (P2) or control peptide (CP) on cell migration on denatured collagen type-IV. […]

The test system of assay [2] is Hut78 T-cells. Put plainly: Transwell migration of Hut78 T-cells through collagen type-IV. Particulars: peptide, absence of SDF-1. It is filed as cell-based, human. The method, then:
FIGS. 4A-4H. […] Briefly, membranes from transwell migration chambers were coated with either native collagen type-IV or denatured collagen type-IV. T-cell variants were incubated with non-specific control peptide CP, or the RGDKGE (SEQ ID NO: 1)-containing collagen peptide (P2) and seed on the coated transwell membranes. T-cells were allowed to migrate in the presence or absence of SDF-1 added to the lower chamber for approximately 1.5 hours. Cell migration was quantified by counting the number of crystal violet stained cells that had migrated through to the underside of the coated membrane. FIG. 4A. Jurkat T-cell migration through denatured collagen type-IV in the presence of non-specific control peptide CP or RGDKGE (SEQ ID NO: 1)-containing collagen peptide P2 with SDF-1. FIG. 4B. Jurkat T-cell migration through native collagen type-IV in the presence of non-specific control peptide CP or RGDKGE (SEQ ID NO: 1)-containing collagen peptide P2 with SDF-1. FIG. 4C. Cem/C1 T-cell migration through denatured collagen type-IV in the presence of non-specific control peptide CP or RGDKGE (SEQ ID NO: 1)-containing collagen peptide P2 with SDF-1. FIG. 4D. Cem/C1 T-cell migration through native collagen type-IV in the presence of non-specific control peptide CP or RGDKGE (SEQ ID NO: 1)-containing collagen peptide P2. FIG. 4E. Hut78 T-cell migration through denatured collagen type-IV in the presence of non-specific control peptide CP or RGDKGE (SEQ ID NO: 1)-containing collagen peptide P2. FIG. 4F. Hut78 T-cell migration through native collagen type-IV in the presence of non-specific control peptide CP or RGDKGE (SEQ ID NO: 1)-containing collagen peptide P2. FIG. 4G Primary CD8+ T-cell migration through denatured collagen type-IV in the presence of non-specific control peptide CP or RGDKGE (SEQ ID NO: 1)-containing collagen peptide P2 with SDF-1. FIG. 4H. CD8+ T-cell migration through native collagen type-IV in the presence of non-specific control peptide CP or RGDKGE (SEQ ID NO: 1)-containing collagen peptide P2 with SDF-1. Data bars indicate the mean cell migration±S.E. *P<0.05.
Given our new observations, and the fact that many tumor types as well as immunosuppressive macrophages can secrete the small soluble RGDKGE (SEQ ID NO: 1) collagen peptide, we next sought to determine whether this soluble collagen peptide could impact T-cell migration through denatured collagen type-IV, a critical ECM component shown to be selectively enriched in tumor vessels. Briefly, membranes from transwell migration chambers were coated with either native collagen type-IV or denatured collagen type-IV. […] Cell migration was quantified following staining cells with crystal violet (6,8). […]

Assay [3] deals with Cem/C1 T-cells. The assay is described as follows: Transwell migration of Cem/C1 T-cells through collagen type-IV. Particulars: peptide, SDF-1. It is filed as cell-based. The method, then: FIGS. 4A-4H. […] Briefly, membranes from transwell migration chambers were coated with either native collagen type-IV or denatured collagen type-IV. T-cell variants were incubated with non-specific control peptide CP, or the RGDKGE (SEQ ID NO: 1)-containing collagen peptide (P2) and seed on the coated transwell membranes. T-cells were allowed to migrate in the presence or absence of SDF-1 added to the lower chamber for approximately 1.5 hours. Cell migration was quantified by counting the number of crystal violet stained cells that had migrated through to the underside of the coated membrane. FIG. 4A. Jurkat T-cell migration through denatured collagen type-IV in the presence of non-specific control peptide CP or RGDKGE (SEQ ID NO: 1)-containing collagen peptide P2 with SDF-1. FIG. 4B. […]
Given our new observations, and the fact that many tumor types as well as immunosuppressive macrophages can secrete the small soluble RGDKGE (SEQ ID NO: 1) collagen peptide, we next sought to determine whether this soluble collagen peptide could impact T-cell migration through denatured collagen type-IV, a critical ECM component shown to be selectively enriched in tumor vessels. […] Cell migration was quantified following staining cells with crystal violet (6,8). […]

With “QGPRGDKGE (CQGPRGDKGEC; Synthetic: Synthetic collagen RGD containing peptide P-2) [Peptide P2, synthetic version of the soluble RGDKGE-containing collagen peptide]”, the “mean CD4+ Treg cell migration cell count” value in assay [1] is listed as “significant increase”. Besides, the “Hut78 T-cell migration” value in assay [2] (denatured collagen type-IV) was “selectively inhibited”; in assay [2] (native collagen type-IV) it was “neither the soluble RGDKGE (SEQ ID NO: 1) collagen peptide P2, nor the non-specific control peptide had any significant effect”. The “Cem/C1 T-cell migration” value in assay [3] (denatured collagen type-IV) is “selectively inhibited”; in assay [3] (native collagen type-IV) it was “neither the soluble RGDKGE (SEQ ID NO: 1) collagen peptide P2, nor the non-specific control peptide had any significant effect”.
